Paper PMC11188489, “Pharmacokinetic assessment of tacrolimus in combination with deoxyschizandrin in rats” (Frontiers in Pharmacology, 2024)

Experiments:
[1] = Stability of the two analytes in rat plasma under different storage conditions; type: in vitro ADME; details: n=5
Experimental: To prepare the stock solution, approximately 2.00 mg of Tac, deoxyschizandrin and IS were accurately weighed and dissolved in methanol, respectively. The stock solutions of Tac and deoxyschizandrin with a final concentration of 1.00 mg/mL was obtained, and the IS stock solution was diluted to 100.00 ng/mL using methanol before use. The stock solutions were aliquoted and stored at −80°C. Combined working solutions were prepared by diluting the stock solution using 10% aqueous methanol at the following concentrations: 5.00, 10.00, 20.00, 50.00, 100.00, 200.00, 500.00, 1,000.00, and 2,000.00 ng/mL. Blank rat plasma was used to prepare the calibration standards. Quality-control (QC) samples of two analytes were prepared separately in the same manner at three concentrations, namely, 10 (low concentration), 100 (middle), 1,000 ng/mL (high), and all QC samples were stored at −80°C.
The methodology validation was completed according to FDA guidelines and Chinese Pharmacopoeia (2015 edition), and the linearity, inter- and intra-precision and accuracy, matrix effect and extraction recovery, stability and specificity of this method were validated according to previous study ([Lu et al., 2022]; [Wang et al., 2022]; [Shu et al., 2016]).

[2] = Pharmacokinetics of Tac in rats alone or co-administered with deoxyschizandrin or Wuzhi capsule (UHPLC-MS/MS of plasma); type: in vivo, SD rats; details: for AUMC0→t / AUC(0-inf) / AUC(0-t) / Cmax / MRT / Tmax / half-life: rat plasma; for AUC(0-inf) / AUC(0-t) / Cmax / MRT / Tmax / half-life: male, SD, rat, plasma
Experimental: The mobile phase A was acetonitrile, and mobile phase B was 0.1% formic acid in water, and the initial mobile phase of gradient elution program was consisted of 60% phase A and 40% phase B. The sample injection volume was set at 10 μL. Gradient elution program was supplied in Supplementary Table S1.
The mass spectrometry detection was achieved on an Agilent 6460A mass spectrometer with ESI source. […] The settings of the mass spectrometer source were as follows: capillary voltage 4,000 V, sheath gas flow 12 L/min, temperature 400°C, dry gas (nitrogen) flow 10 L/min and temperature 350°C, nebulizer pressure 45 psi. All analytes were detected in positive ionization mode. Collision gas (high purity liquid nitrogen) was set at 0.25 MPa. The structures of both two analytes and IS are display in Figure 1.
The pretreatment was performed for the plasma sample by one-step protein precipitation, Briefly, 100 μL sample was transferred into a 1.5 mL EP tube prior to adding with 300 μL methanol(containing 200 ng/mL IS). The mixture was vortex-mixed for 30 s before centrifugation at 17,400 g for 10 min at room temperature, and 100 μL of the supernatant was diluted with 100 μL of acetonitrile (v/v, 1:1) Then, a 10 μL aliquoted of diluted solution was injected into the UHPLC-MS/MS system for analysis.
The protocol of the animal study was approved by the Experimental Animal Ethics Committee of the Shanghai University of Traditional Chinese Medicine. Specific Pathogen Free (SPF) grade SD rats, male, 8 weeks old, 200–250 g, were obtained from the animal experiment center of Shanghai University of Traditional Chinese Medicine. After passing quarantine, the rats were adaptive fed for 2 days. Rats were fasted for 12–14 h, followed by the initiation of pharmacokinetic study of Tac and deoxyschizandrin. This animal study was carried out in accordance with the National Institutes of Health Guide for the Care and Use of Laboratory animals.
In this study, 42 rats were divided equally into seven groups of six rats each, numbered NG2201-NG2207. Among them, the NG2201 and NG2202 group was dosed with 150 mg/kg deoxyschizandrin alone to study the PK of deoxyschizandrin in rats after single and multiple doses; the NG2203 group was administrate dosed with 1.0 mg/kg of Tac; the NG2204-NG2206 groups were dosed with 75, 150, and 300 mg/kg of deoxyschizandrin plus 1.0 mg/kg Tac, respectively, and the NG2207 group was dosed with the Wuzhi capsule (approximately equal to 150 mg/kg of deoxyschizandrin) plus 1.0 mg/kg of Tac ([Teng et al., 2022]). The detailed dosing regimen is shown in Table 2, and all dose in this experiment were calculated according to clinical dose. Blood samples (approximately 300 μL for each) for PK analysis were collected into lithium–heparin tubes. The plasma sampling schedules are outlined below: Blood samples were drawn pre-dose, at 5, 10, 20 and 30 min, and at 1, 1.5, 2, 4, 8 and 24 h after drug administration. The blood samples were centrifuged at 5,000 g for 15 min at 4°C to collect plasma samples, which were placed −80 refrigerator.
The rat plasma collected from each group was pretreated according to the method in section 2.5, and exposure levels of Tac and deoxyschizandrin were determined using the above established UHPLC-MS/MS method and the PKs were calculated using DAS software using non-compartment model (version 2.0, China Pharmacological Society). The data were presented as mean ± SD.

[3] = set-up: method as in Abushammala, 2021; details: ref Abushammala, 2021; cited from earlier work
[4] = 1 mg/kg, NG2203: 1.0 mg/kg of Tac alone
[5] = 1 mg/kg, NG2204: 1.0 mg/kg of Tac plus 75 mg/kg deoxyschizandrin
[6] = 1 mg/kg, NG2205: 1.0 mg/kg of Tac plus 150 mg/kg deoxyschizandrin
[7] = 1 mg/kg, NG2206: 1.0 mg/kg of Tac plus 300 mg/kg deoxyschizandrin
[8] = 1 mg/kg, NG2207: 1.0 mg/kg of Tac plus Wuzhi capsule (equivalent to 150 mg/kg deoxyschizandrin)
[9] = 1 mg/kg, Tac 1 mg/kg alone (NG2203)
[10] = 1.0 mg/kg of Tac plus Wuzhi capsule (equivalent to 150 mg/kg deoxyschizandrin)

SMILES: C=CC[C@@H]1/C=C(\C)C[C@H](C)C[C@H](OC)[C@H]2O[C@@](O)(C(=O)C(=O)N3CCCC[C@H]3C(=O)O[C@H](/C(C)=C/[C@@H]3CC[C@@H](O)[C@H](OC)C3)[C@H](C)[C@@H](O)CC1=O)[C@H](C)C[C@@H]2OC [Tac, Tacrolimus]
- Auto-sampler stability (24h, 4℃) Mean ± SD ([1]; Nominal Conc. 10 ng/mL): 10.23±0.51
- Bench-top stability (8h, RT) Mean ± SD ([1]; Nominal Conc. 10 ng/mL): 10.39±0.41
- Frozen-thaw stability (3 times) Mean ± SD ([1]; Nominal Conc. 10 ng/mL): 10.55±0.54
- Long-term stability (1 month, -80℃) Mean ± SD ([1]; Nominal Conc. 10 ng/mL): 10.35±0.14
- Auto-sampler stability (24h, 4℃) Mean ± SD ([1]; Nominal Conc. 100 ng/mL): 103.90±2.74
- Bench-top stability (8h, RT) Mean ± SD ([1]; Nominal Conc. 100 ng/mL): 102.33±1.53
- Frozen-thaw stability (3 times) Mean ± SD ([1]; Nominal Conc. 100 ng/mL): 110.23±5.21
- Long-term stability (1 month, -80℃) Mean ± SD ([1]; Nominal Conc. 100 ng/mL): 101.09±1.01
- Auto-sampler stability (24h, 4℃) Mean ± SD ([1]; Nominal Conc. 1000 ng/mL): 1010.05±13.85
- Bench-top stability (8h, RT) Mean ± SD ([1]; Nominal Conc. 1000 ng/mL): 1009.93±11.80
- Frozen-thaw stability (3 times) Mean ± SD ([1]; Nominal Conc. 1000 ng/mL): 1025.45±12.50
- Long-term stability (1 month, -80℃) Mean ± SD ([1]; Nominal Conc. 1000 ng/mL): 1008.72±11.30
- increase of C max of Tac after co-administered deoxyschizandrin ([2]; 75, 150, 300 mg/kg deoxyschizandrin plus 1 mg/kg Tac vs Tac alone, rats): 3-4 fold
- AUMC0→t ([2]; NG2203: 1.0 mg/kg of Tac alone): 613.05 ± 182.15 ng. h2/mL
- AUMC0→t ([2]; NG2204: 1.0 mg/kg of Tac plus 75 mg/kg deoxyschizandrin): 2107.22 ± 701.25 ng. h2/mL
- AUMC0→t ([2]; NG2205: 1.0 mg/kg of Tac plus 150 mg/kg deoxyschizandrin): 1915.12 ± 621.91 ng. h2/mL
- AUMC0→t ([2]; NG2206: 1.0 mg/kg of Tac plus 300 mg/kg deoxyschizandrin): 3,315.05 ± 1,100.65 ng. h2/mL
- AUMC0→t ([2]; NG2207: 1.0 mg/kg of Tac plus Wuzhi capsule (equivalent to 150 mg/kg deoxyschizandrin)): 2395.69 ± 1,225.18 ng. h2/mL
- mean C max lower with Wuzhi capsule compared with deoxyschizandrin ([2]; Tac 1.0 mg/kg plus Wuzhi capsule vs plus 150 mg/kg deoxyschizandrin, rats): 11.23 ng/mL
- AUC(0-inf) [2, 4]: 105 ± 31.3 ng·h/mL
- AUC(0-t) [2, 4]: 95.1 ± 32.6 ng·h/mL
- Cmax [2, 4]: 14.3 ± 4.73 ng/mL
- MRT [2, 4]: 6.54 ± 0.55 h
- Tmax [2, 4]: 1.33 ± 0.52 h
- half-life [2, 4]: 7.3 ± 3.06 h
- AUC(0-inf) [2, 5]: 351 ± 117 ng·h/mL
- AUC(0-t) [2, 5]: 314 ± 99.4 ng·h/mL
- Cmax [2, 5]: 43.2 ± 13.7 ng/mL
- MRT [2, 5]: 6.69 ± 0.25 h
- Tmax [2, 5]: 1.17 ± 0.41 h
- half-life [2, 5]: 7.31 ± 1.04 h
- AUC(0-inf) [2, 6]: 331 ± 98 ng·h/mL
- AUC(0-t) [2, 6]: 315 ± 92.2 ng·h/mL
- Cmax [2, 6]: 54.5 ± 14.4 ng/mL
- MRT [2, 6]: 6.02 ± 0.53 h
- Tmax [2, 6]: 1.08 ± 0.49 h
- half-life [2, 6]: 5.04 ± 1.95 h
- AUC(0-inf) [2, 7]: 534 ± 176 ng·h/mL
- AUC(0-t) [2, 7]: 486 ± 149 ng·h/mL
- Cmax [2, 7]: 67.4 ± 18.6 ng/mL
- MRT [2, 7]: 6.76 ± 0.31 h
- Tmax [2, 7]: 0.75 ± 0.27 h
- half-life [2, 7]: 6.59 ± 1.62 h
- AUC(0-inf) [2, 8]: 388 ± 217 ng·h/mL
- AUC(0-t) [2, 8]: 340 ± 193 ng·h/mL
- Cmax [2, 8]: 43.2 ± 21.9 ng/mL
- MRT [2, 8]: 7.23 ± 1.04 h
- Tmax [2, 8]: 1.5 ± 0.55 h
- half-life [2, 8]: 8.27 ± 2.2 h
- AUC(0-inf) [2, 9]: 105 ± 31.3 ng·h/mL
- AUC(0-t) [2, 9]: 95.1 ± 32.6 ng·h/mL
- AUC(0-t) ([2]; 1 mg/kg, Tac alone (NG2203)): 95.1 ± 32.6 ng·h/mL
- AUC(0-inf) [2, 10]: 388 ± 217 ng·h/mL
- AUC(0-t) [2, 10]: 340 ± 193 ng·h/mL
- AUC(0-t) ([2]; Tac after co-administration of deoxyschizandrin (NG2205)): 315 ± 92.2 ng·h/mL
- AUC(0-t) ([2]; Tac co-administrated with deoxyschizandrin (NG2205)): 315 ± 92.2 ng·h/mL
- average bioavailability [3]: 25%
